“Also recorded” adds a separate entry of the source.
Columns and labels:
[1] = tested on: white blood cells, red blood cells, and platelets; experiment: Third round screening: plasma MPO, ferritin and RANTES as blood cell damage indicators; type: cell-based; conditions: inhibitor in Streck B formulation; 7-day room temperature storage; data not shown
Protocol: The effects of these seven inhibitors on white blood cells, red blood cells, and platelets were evaluated during the third round of screening. […] Therefore, plasma levels of myeloperoxidase (MPO), ferritin, and RANTES were measured with immunoassay as damage indicators of white blood cells, red blood cells, and platelets, respectively. Preservative formulations were made by adding platelet activation inhibitors to Streck B formulation at concentrations determined through the second round of screening. Venous blood was collected from 2 donors for all preservative formulations. EDTA, ACD-A, Streck B formulation and Streck B formulation spiked with 2 mM Tetracaine were used as references. Draw whole blood samples were stored at room temperature for up to 7 days.

platelets [2] = experiment: Second round screening: % activated platelets (CD62P/CD61 flow cytometry) and plasma TGF-β1; type: cell-based; conditions: inhibitor in Streck B formulation at 3 to 5 dosages; room temperature up to 7 days; data not shown
Protocol: Preservative formulations were made by adding platelet activation inhibitors to the Streck B formulation at the desired concentrations. Venous blood specimens from 2 donors were then drawn into blood collection tubes (BCTs) prefilled with these formulations. As references, blood specimens were also drawn into EDTA tubes, ACD-A tubes, tubes filed with Streck B formulation, and tubes containing Streck B formulation spiked with and 2 mM tetracaine. Blood specimens were stored at room temperature for up to 7 days.
The percentages of activated platelets (CD62P positive) among total platelets (CD61 positive) in drawn whole blood were measured by flow cytometry. The percentage of activated platelets was tested with Day 0 and Day 3 blood specimens. The plasma levels of TGF-β1 in Day 0, Day 1, Day 3, and Day 7 old blood specimens were measured with immunoassay.

platelets [3] = experiment: First round screening of platelet activation inhibitors: plasma TGF-β1 by Ella immunoassay; type: cell-based; conditions: inhibitor added to Streck B formulation; venous blood at room temperature; data not shown
Protocol: Blood specimens drawn from 3 donors were stored at room temperature for […]. Activated platelet secret granule contents, such as growth factors, chemokines, and cytokines, into plasma. Elevated plasma concentration of TGF-β1 indicates platelet activation and granule release. Plasma TGF-β1 level was measured with immunoassay using Ella Automated Immunoassay System. Freshly drawn blood (day 0), blood stored for 1 day (Day 1), 3 days (Day 3), and 7 days (Day 7) were tested.
The tested formulations are compared with EDTA and ACD-A for their ability to prevent granule release from platelets. Streck B formulation spiked with 2 mM tetracaine was also used as a reference.

platelets [4] = conditions: 2 mM mexiletine or 1 mM verapamil in Streck B formulation; tubes stored 2-50° C. up to 8 weeks; data not shown
Text: Freshly made tubes, 2 weeks old tubes, 4 weeks old tubes, and 8 weeks old tubes were then used to collect venous blood from 2 self-proclaimed healthy donors. Blood specimens were stored at room temperature for up to 3 days. The percentage of platelet activation and plasma level of TGF-31 to test the ability of the aged formulation to prevent platelets activation at collection time and during room temperature storage.

cfRNA [5] = experiment: cfRNA stability: Qubit miRNA Assay, total plasma cfRNA; conditions: 7 days ambient storage
Text: (§1) Total cell-free nucleic acids were isolated from day 0 or day 7 blood samples using Qiagen's QIAamp Circulating Nucleic Acid Kit.
Qubit miRNA Assay was used to quantify the concentration of total plasma cfRNA. If RNA-containing cells, such as reticulocytes and white blood cells, were lysed during storage, then large amounts of RNA fragments would be released into plasma, masking the very low abundant circulating cfRNA while resulting in elevated cfRNA.

RBC = experiment: In vitro hemolysis, absorbance at 414 nm (Nanodrop); type: cell-based; conditions: venous blood, room temperature up to 5 days, N=15
Text: Hemolysis was quantitatively measured by following the absorbance at 414 nm with Nanodrop. An increased A414 indicates releasing of hemoglobin from broken RBC, which is a key event of hemolysis.

platelets [6] = experiment: Tasso+ capillary blood study: plasma MPO and RANTES; type: cell-based; conditions: venous and Tasso+ capillary blood, up to 3 days room temperature
Protocol: Tasso+ is a single-use device that collects up to 0.5 mL of capillary blood from a donor's upper arm. Tasso+ is compatible with BD Microtainer® Blood Collection Tubes.
Capillary blood samples were collected from 3 donors. […] Blood samples were stored at room temperature for up to 3 days. Three functionality assays were conducted, including measuring hemolysis (FIG. 8A) and testing the plasma level of MPO (FIG. 8B) and RANTES (FIG. 8C).

cfDNA [7] = experiment: cfDNA stability: Qubit HS DNA Assay, total plasma cfDNA
Text: (§2) The drawn blood samples were stored at room temperature for up to 7 days. Total cell-free nucleic acids were isolated from day 0 or day 7 blood samples using Qiagen's QIAamp Circulating Nucleic Acid Kit.
(§3) The resultant plasma cfDNA was first studied with Qubit HS DNA Assay (FIG. 5A), which quantifies the concentration of total plasma cfDNA. Without proper stabilization, white blood cells in drawn blood will lyse during storage and release large amounts of genomic DNA fragments into the plasma, leading to elevated total plasma cfDNA. Compared to cfDNA originating from white blood cells, tumor-derived cfDNA is preset at a very low concentration. Tumor-derived cfDNA should not be detectable in healthy donors.

β-Actin DNA (ACTB) = experiment: Spray-coated microcollection tubes: plasma β-Actin by ddPCR
Protocol: (§4) Blood was collected from healthy donors, each collected into 1×5 mL EDTA vacutainer tubes and virgin (no anticoagulant). Next, venous blood was aliquoted as quickly as possible into the spray-coated microtainers. The EDTA blood was aliquoted into virgin Greiner microtainers as negative controls. The blood with no anticoagulant was aliquoted into microcollection tubes spray coated with one of three formulations noted in Table 2 below, with two tubes per formulation. The sprayed microtainers were then mixed 15-20 times with the blood sample.
(§5) Half of the samples were analyzed at draw time and the remaining half were stored at room temperature for 3 days before analysis. Plasma protein concentration of TGF-β1 was analyzed with Ella (FIG. 10). Plasma β-Actin level was determined by ddPCR (FIG. 11).

plasma proteins = experiment: Venous blood, Luminex xMAP Multiplex Immunoassay Panel; type: cell-based; conditions: room temperature storage, 3 to 5 days
Protocol: After double-spin process, isolated plasma fractions were tested with Luminex xMAP Multiplex Immunoassay Panel.

TGF-β1 = experiment: Spray-coated microcollection tubes: plasma TGF-β1 (Ella); type: cell-based; conditions: 3-day room temperature storage, spray-coated microcollection tubes (FIG. 10)
Protocol: as §4, §5

cfRNA [8] = experiment: cfRNA stability: Agilent RNA Pico Kit, Bioanalyzer; conditions: day 7 versus freshly collected blood
Text: as §1
The plasma cfRNA was first analyzed with Agilent's RNA Pico Kit on the Agilent Bioanalyzer system (FIG. 6A).

red blood cells = experiment: TAP II capillary blood study: hemolysis (A414); type: cell-based; conditions: venous blood and TAP II capillary blood, up to 3 days room temperature
Text: Blood samples were stored at room temperature for up to 3 days.

β-actin (ACTB) = experiment: cfDNA stability: plasma β-actin (ACTB) by digital droplet PCR; conditions: day 7 blood, ambient storage
Text: as §2, §3

cfDNA [9] = experiment: cfDNA stability: Agilent cfDNA ScreenTape Assay
Text: as §2
Plasma cfDNA was further analyzed with Agilent cfDNA ScreenTape Assay on Agilent TapeStation (FIGS. 5C & 5D). […] Thus, the percentage of cfDNA between 150-300 bp among total cfDNA (% cfDNA) was used to indicate genomic DNA contamination (FIG. 5D).

Row | Compound | adverse effects on white blood cells, red blood cells and platelet [1] | ability to reduce platelet activation in second round screening (platelets [2]) | outcome of first round screening (maintaining plasma TGF-β1 comparable to Streck B formulation with tetracaine) (platelets [3]) | also measured
1 | C=C[C@H]1C[N@@]2CC[C@H]1C[C@@H]2[C@@H](O)c1ccnc2ccc(OC)cc12 [quinidine] | little adverse effects | behaved at least comparable to each other | graduated from the first round of the screening | –
2 | Cc1cccc(C)c1OCC(C)N (stereo not drawn) [mexiletine] | little adverse effects | behaved at least comparable to each other | graduated from the first round of the screening | functional stability of aged formulations compared to other tested ion inhibitors (platelets [4]): better functional stability
3 | CCN(CC)CC(=O)Nc1c(C)cccc1C [lidocaine] | little adverse effects | behaved at least comparable to each other | – | –
4 | CCCCN1CCCCC1C(=O)Nc1c(C)cccc1C (stereo not drawn) [bupivacaine] | little adverse effects | behaved at least comparable to each other | graduated from the first round of the screening | –
5 | COc1ccc([C@@H]2Sc3ccccc3N(CCN(C)C)C(=O)[C@@H]2OC(C)=O)cc1 [diltiazem] | little adverse effects | behaved at least comparable to each other | graduated from the first round of the screening | –
6 | COc1ccc(CCN(C)CCCC(C#N)(c2ccc(OC)c(OC)c2)C(C)C)cc1OC (stereo not drawn) [verapamil] | little adverse effects | behaved at least comparable to each other | graduated from the first round of the screening | –
7 | Cc1cccc(C)c1NC(=O)C1CCCCN1C (stereo not drawn) [mepivacaine] | little adverse effects | behaved at least comparable to each other | graduated from the first round of the screening | –
8 | O=C(O)CN(CCN(CC(=O)O)CC(=O)O)CC(=O)O [EDTA, ethylene diamine tetra acetic acid] | – | – | – | increase of total cfRNA after storage (cfRNA [5]): ~5 fold; in vitro hemolysis (A414) (RBC): in vitro hemolysis since day 3; also recorded: significant hemolysis; granule release from activated platelets (plasma MPO and RANTES) (platelets [6]): increased; total plasma cfDNA concentration (cfDNA [7]; day 0 blood): low concentrations of cfDNA; total plasma cfDNA concentration (cfDNA [7]; day 7 blood, room temperature): elevated total cfDNA; level of β-Actin in 3-day old plasma versus draw time plasma (β-Actin DNA (ACTB); 3 days room temperature (FIG. 11)): more than 20 fold; plasma β-Actin DNA level after storage (genomic DNA contamination) (β-Actin DNA (ACTB); 3 days room temperature, spray-coated tubes (FIG. 11)): led to genomic DNA (β-Actin) contamination; plasma concentrations of representative proteins and cytokines (FIG. 2: MPO, TGF-β1, CCL5/RANTES, MMP-9, VEGF, Granzyme B, TNFα, IL-8) (plasma proteins): elevated levels; also recorded: marked increase; change of plasma TGF-β1 level after storage (TGF-β1): drastically increased; plasma cfRNA electropherogram (concentration and population) (cfRNA [8]): greatly changed; hemolysis (red blood cells): induces hemolysis; plasma level of β-actin (ACTB) DNA (β-actin (ACTB)): high amount of ACTB; % cfDNA (cfDNA between 150-300 bp among total cfDNA) (cfDNA [9]; Day 0 blood): 75%; plasma cfDNA electropherogram plots (cfDNA [9]; Day 7 blood): prominent peak of apoptotic-ladder DNA; % cfDNA (cfDNA between 150-300 bp among total cfDNA) (cfDNA [9]; Day 7 blood, room temperature): 30%
